Test results taken from patent US20110033938A1, “SYSTEM FOR INDUCIBLE GENE EXPRESSION IN CHLAMYDOMONAS” (priority 2008, published 2011).
Where two headings read alike, the source gives them in different places.

How the values were obtained:
Chlamydomonas growth = conditions: for toxicity effects on Chlamydomonas growth: TAP medium; for effect on Chlamydomonas growth rate: all three growth media
Description: (§1) In order to measure quantitatively the transcription of a gene sequence placed under the control of the Cyc6 promoter, we cloned downstream of this promoter the reporter gene cRLuc (Fuhrmann et al., 2004). This gene was also cloned downstream of the strong constitutive PsaD promoter (Fischer e Rochaix, 2001) obtaining the cassettes Cyc6:cRLuc and PsaD:cRLuc (FIG. 1A). Chlamydomonas cells were transformed with these cassettes according to Kindle (1990) and the transformed cells were inoculated in TAP growth medium (Harris, 1989) at a cell density of 10^6 cells/ml. 30 hours later, Ni2+ was added at a final concentration of 25, 50 and 75 μM and Luc activity was measured in the cellular lysates at different times after induction using the Luciferase Assay System (Promega, cat. E2820).
(§2) Ni2+ was added to cells transformed with the construct Cyc6:cRLuc (indicated as “transformed cells” from now on) and grown in TAP, TAP/ENEA1 and TAP/ENEA2 growth media. […] An ideal inducible gene system should be promptly reversible after the addition of an antagonist of the inducer, effective at micromolar concentrations.
(§3) Since the Cyc6 promoter is switched off by Cu2+, the use of chelators specific for that ion can be an alternative method for the reversible induction of this promoter. As an example, FIGS. 4A and 4B show, respectively, the Luc activity and the growth curves of cells transformed with the construct Cyc6:cRLuc grown in TAP/ENEA2 growth medium and induced with the chelators listed in Table 3. […] In the present invention, we propone an alternative method to the Ni2+/EDTA system: activation by Cu chelators, followed by reversion by Cu2+ addition. […] In these experiments, the Cyc6 promoter was induced by 2 μM TETA and repressed by 1 μM Cu2+ (FIG. 4D) and by 5 μM TETA and by 2 μM Cu2+ (FIG. 4E). At 88 hours from TETA addition, the culture in stationary phase was diluted 1:20 and after 30 hours (0 hours of the second cycle) TETA was added at concentrations of 2 (FIG. 4D) e 5 μM (FIG. 4E). At 16 hours Cu2+ was added at the concentration of 1 (FIG. 4D) and 2 μM (FIG. 4E). […] In the system described here, activation and repression of the promoter are obtained respectively by addition of an inducer and its antagonist. In none of the chemically regulated gene expression systems described to date, such an activation followed by repression has been described.
A: Schematic maps of the PsaD:cRLuc and Cyc6:cRLuc constructs B: Schematic maps of the Cyc6:Rb-int-1, Cyc6:Rb-int-2, Cyc6:Rb:int-3 constructs C: Growth curves in TAP medium after addition of different Ni concentrations D: Luc activity driven by PsaD and Cyc6 in TAP medium after addition of different Ni concentrations
A, C, E: Luc activity of Chlamydomonas cells transformed with the Cyc6:cRLuc construct in TAP, TAP/ENEA1 and TAP/ENEA2 growth media in the presence of 25 μM (A), 50 μM (C), 75 μM (E) Ni2+.

Cyc6 promoter [1] = format: cell-based, Chlamydomonas reinhardtii; conditions: for Luc activity induction relative to PsaD: 75 μM Ni2+
Description: as §1, §2, §3
A, C, E: Luc activity of Chlamydomonas cells transformed with the Cyc6:cRLuc construct in TAP, TAP/ENEA1 and TAP/ENEA2 growth media in the presence of 25 μM (A), 50 μM (C), 75 μM (E) Ni2+. B, D, F: Growth curves of the transformed cells grown in TAP, TAP/ENEA1 and TAP/ENEA2 growth media in the presence of different Ni2+ concentrations, 25 μM (B), 50 μM (D), 75 μM (F) Ni2+. For the composition of the different media, see Table 2.
(§4) A: Luc activity of cells transformed with Cyc6:cRLuc construct induced by the different chelators listed in Table 3 in TAP/ENEA2 growth medium. B: Growth curves in TAP/ENEA2 growth medium in the presence of different Cu-chelators.

Cyc6 promoter [2] = assay: Reversibility of Cyc6 promoter induction (Luc activity) after addition of an antagonist (EDTA or Cu2+); format: cell-based, Chlamydomonas reinhardtii
Description: as §3, §4

c1cnc2c(c1)ccc1cccnc12 [1.10 phenanthroline, 1,10-phenanthroline]
toxicity on Chlamydomonas growth (Chlamydomonas growth; chelator 10 μM, TAP/ENEA2): toxic

Cc1cc(-c2ccc(S(=O)(=O)O)cc2)c2ccc3c(-c4ccc(S(=O)(=O)O)cc4)cc(C)nc3c2n1 [BCS, bathocuproinedisulfonic acid]
activation of the Cyc6 promoter (Luc activity) (Cyc6 promoter [1]; chelator 10 μM, TAP/ENEA2): able to activate the Cyc6 promoter

[Cu+2] [Cu2+]
effect on Luc activity after TETA induction (Cyc6 promoter [2]; 2 μM Cu2+ added 16 hours after chelator addition, TAP/ENEA2): represses Luc activity | reversion of TETA induction by Cu2+ (Cyc6 promoter [2]; micromolar Cu2+, TAP/ENEA2, FIG. 4C): can be reverted

O=C(O)CN(CCN(CC(=O)O)CC(=O)O)CC(=O)O [EDTA]
reversion of Cyc6 promoter activity (Luc) by EDTA (Cyc6 promoter [2]; EDTA 25, 50 and 150 μM added 16 hours after 25 or 50 μM Ni2+, TAP/ENEA2 and TAP): only partially reverted

Cn1ccnc1CNC1CC(NCc2nccn2C)CC(NCc2nccn2C)C1 (stereo not drawn) [IM, 1,3,5-cis,cis,-triaminocyclohexane-N,N′,N″-tris-(2-methyl-(N-methylimidazole))]
activation of the Cyc6 promoter (Luc activity) (Cyc6 promoter [1]; chelator 10 μM, TAP/ENEA2): able to activate the Cyc6 promoter

[Ni+2] [Ni2+]
toxicity effects on Chlamydomonas growth (Chlamydomonas growth; 25 μM Ni2+): does not have toxic effects | toxic effects on growth (Chlamydomonas growth; 25 μM Ni2+, all three growth media (TAP, TAP/ENEA1, TAP/ENEA2)): only minor toxic effects | toxicity effects on Chlamydomonas growth (Chlamydomonas growth; 50 μM Ni2+): toxicity effects | effect on Chlamydomonas growth rate (Chlamydomonas growth; 50 μM Ni2+): evident slowing down of Chlamydomonas growth rate | toxicity effects on Chlamydomonas growth (Chlamydomonas growth; 75 μM Ni2+): toxicity effects | effect on Chlamydomonas growth rate (Chlamydomonas growth; 75 μM Ni2+): evident slowing down of Chlamydomonas growth rate | Cyc6 promoter activity in TAP, TAP/ENEA1 and TAP/ENEA2 (Cyc6 promoter [1]; 25 μM Ni2+): active only in TAP/ENEA2 growth medium | activation of the Cyc6 promoter (Cyc6 promoter [1]; 25 μM Ni2+, TAP medium): not sufficient to activate the Cyc6 promoter | Cyc6 promoter activity relative to PsaD promoter (Cyc6 promoter [1]; 25 μM Ni2+, TAP/ENEA2): same level of activity as the strong PsaD promoter | increase of Cyc6 promoter activity in TAP/ENEA2 with respect to TAP medium (Cyc6 promoter [1]; 50 μM Ni2+): 25 times | Cyc6 promoter activity relative to PsaD (Cyc6 promoter [1]; 50 μM Ni2+, TAP): 1/10 | Cyc6 promoter activity relative to PsaD (Cyc6 promoter [1]; 50 μM Ni2+, TAP/ENEA1): ½ | Cyc6 promoter activity relative to PsaD (Cyc6 promoter [1]; 50 μM Ni2+, TAP/ENEA2): 2.5 fold more than PsaD | Luc activity induction relative to PsaD (Cyc6 promoter [1]; TAP/ENEA1): about two-fold | Luc activity induction relative to PsaD (Cyc6 promoter [1]; TAP/ENEA2): about two-fold | Luc activity after induction compared to PsaD promoter (Cyc6 promoter [1]; 25, 50 and 75 μM Ni2+, TAP medium): low compared to the Luc activity driven by the PsaD promoter

NCCNCCNCCN [TETA, triethylentetramine]
induction in a second growth cycle (Cyc6 promoter [2]): a second induction is obtained | Cyc6 promoter activation in TAP/ENEA2 versus TAP (Cyc6 promoter [1]): only in TAP/ENEA2 growth medium | activation of the Cyc6 promoter (Luc activity) (Cyc6 promoter [1]): able to activate the Cyc6 promoter | time course of Luc activity after chelator addition (Cyc6 promoter [1]): increases steadily until 48 hours
